Measurements: ChEMBL document CHEMBL6120965, “Structure-Activity Relationship Studies Leading to the Discovery of Highly Water-Soluble and Biocompatible Acyclic Cucurbit[n]uril FY-3451 as a Universal Antagonist That Rapidly Reverses Neuromuscular Blocking Agents In Vivo” (J Med Chem, 2024)

Experiments:
Rattus norvegicus [1] = assay: Recovery of Roc-induced neuromuscular block in Sprague-Dawley rat assessed as […] ratio (TOFr) >= 90% by measuring recovery time at 25 mg/kg, iv (reference value: 597 seconds); format: functional
[2] = Water solubility of the compound measured at 25 degreeC; format: physicochemical
Rattus norvegicus [3] = assay: Recovery of CisA-induced neuromuscular block in Sprague-Dawley rat assessed as […] ratio (TOFr) >= 90% by measuring recovery time at 80 mg/kg, iv (reference value: 784 seconds); format: functional
[4] = Toxicity in iv dosed Sprague-Dawley rat assessed as maximum tolerated dose measured upto 14 days; format: organism-based; details: in vivo, 336 h, time < 14 day
Rattus norvegicus [5] = assay: Recovery of CisA-induced neuromuscular block in Sprague-Dawley rat assessed as […] ratio (TOFr) >= 90% by measuring recovery time at 120 mg/kg, iv (reference value: 784 seconds); format: functional
Cisatracurium = assay: Binding affinity to Cisatracurium by Competition UV-Vis titration method
Proflavine = assay: Binding affinity to Proflavine by Competition UV-Vis titration method
[6] = Therapeutic index, ratio of toxicity in iv dosed Sprague-Dawley rat assessed as maximum tolerated dose to recovery of Roc/Vec/Panc-induced neuromuscular block in Sprague-Dawley rat assessed as […] ratio (TOFr) by measuring recovery time at 25 mg/kg, iv; format: organism-based; details: in vivo, read-out: TI
Rhodamine 6G = assay: Binding affinity to Rhodamine 6G by Competition UV-Vis titration method
[7] = system: Trans-cydohexane-1,4-diartunonium dichloride; assay: Binding affinity to Trans-[…] dichloride by Competition UV-Vis titration method
[8] = system: Midazolium-based-macrocycle; assay: Binding affinity to Midazolium-based-macrocycle by Competition UV-Vis titration method
Rocuronium = assay: Binding affinity to Rocuronium by Competition UV-Vis titration method
Rattus norvegicus [9] = assay: Recovery of IMC-1-induced neuromuscular block in Sprague-Dawley rat assessed as […] ratio (TOFr) >= 90% by measuring recovery time at 10 mg/kg, iv (reference value: 4021 seconds); format: functional
Rattus norvegicus [10] = assay: Recovery of Vec-induced neuromuscular block in Sprague-Dawley rat assessed as […] ratio (TOFr) >= 90% by measuring recovery time at 25 mg/kg, iv (reference value: 525 seconds); format: functional
Pancuronium = assay: Binding affinity to Pancuronium by Competition UV-Vis titration method
[11] = Solubility of the compound in sodium phosphate buffered water; format: physicochemical
Rattus norvegicus [12] = assay: Recovery of Pan-induced neuromuscular block in Sprague-Dawley rat assessed as […] ratio (TOFr) >= 90% by measuring recovery time at 25 mg/kg, iv (reference value: 3600 seconds); format: functional
Vecuronium = assay: Binding affinity to Vecuronium by Competition UV-Vis titration method
[13] = Therapeutic index, ratio of toxicity in iv dosed Sprague-Dawley rat assessed as maximum tolerated dose to recovery of CisA-induced neuromuscular block in Sprague-Dawley rat assessed as […] ratio (TOFr) by measuring recovery time at 80 to 100 mg/kg, iv; format: organism-based; details: in vivo, dose 80-100 mg/kg, read-out: TI

Row | SMILES | Time (Rattus norvegicus [1]) [s] | solubility [2] [mg/mL] | Time (Rattus norvegicus [3]) [s] | other results
1 | CC[C@]12N3Cc4c(c(OCCCS(=O)(=O)[O-])c5ccccc5c4OCCCS(=O)(=O)[O-])CN1C(=O)N1CN4C(=O)N5CN6C(=O)N7CN8C(=O)N9Cc%10c(c(OCCCS(=O)(=O)[O-])c%11ccccc%11c%10OCCCS(=O)(=O)[O-])CN%10C(=O)N(CN%11C(=O)N(CN%12C(=O)N(CN(C3=O)[C@]12CC)[C@@H]4[C@H]%125)[C@@H]6[C@H]%117)[C@]8(CC)[C@@]9%10CC.[Na+].[Na+].[Na+].[Na+] | 19 | 670 | 57 | MTD [4]: 500 mg/kg
2 | CN(C)C(=O)Oc1cccc([N+](C)(C)C)c1 [NEOSTIGMINE] | 409 |  | 276 | 
3 | Cc1c(C)c(OCCCS(=O)(=O)[O-])c2c(c1OCCCS(=O)(=O)[O-])CN1C(=O)N3CN4C(=O)N5CN6C(=O)N7CN8C(=O)N9Cc%10c(c(OCCCS(=O)(=O)[O-])c(C)c(C)c%10OCCCS(=O)(=O)[O-])CN%10C(=O)N(CN%11C(=O)N(CN%12C(=O)N(CN%13C(=O)N(C2)[C@]1(C)[C@]%133C)[C@@H]4[C@@H]5%12)[C@@H]6[C@@H]7%11)[C@]8(C)[C@]%109C.[Na+].[Na+].[Na+].[Na+] | 30 | 500 | 35 | Time (Rattus norvegicus [5]): 28 s; Ka (Cisatracurium): 0.13 10^7/M; Ka (Proflavine): 13 10^7/M; selectivity ratio [6]: 60; Ka (Rhodamine 6G): 0.045 10^7/M; Ka [7]: 0.069 10^7/M; Ka [8]: 119 10^7/M; Ka (Rocuronium): 9.84 10^7/M; Time (Rattus norvegicus [9]): 13 s; Time (Rattus norvegicus [10]): 13 s; Ka (Pancuronium): 51 10^7/M; solubility [11]: 563 mg/mL; Time (Rattus norvegicus [12]): 21 s; Ka (Vecuronium): 2.92 10^7/M; selectivity ratio [13]: 18.8; MTD [4]: 500 mg/kg
4 | COc1cc(OCCCS(=O)(=O)[O-])c2c(c1OCCCS(=O)(=O)[O-])CN1C(=O)N3CN4C(=O)N5CN6C(=O)N7CN8C(=O)N9Cc%10c(c(OCCCS(=O)(=O)[O-])cc(OC)c%10OCCCS(=O)(=O)[O-])CN%10C(=O)N(CN%11C(=O)N(CN%12C(=O)N(CN%13C(=O)N(C2)C1(C)C%133C)C4C%125)C6C%117)C8(C)C%109C.[Na+].[Na+].[Na+].[Na+] (stereo not given) | 40 | 870 |  | 
5 | CC[C@]12N3Cc4c(c(OCCCS(=O)(=O)[O-])c(C)c(C)c4OCCCS(=O)(=O)[O-])CN1C(=O)N1CN4C(=O)N5CN6C(=O)N7CN8C(=O)N9Cc%10c(c(OCCCS(=O)(=O)[O-])c(C)c(C)c%10OCCCS(=O)(=O)[O-])CN%10C(=O)N(CN%11C(=O)N(CN%12C(=O)N(CN(C3=O)[C@]12CC)[C@@H]4[C@H]%125)[C@@H]6[C@H]%117)[C@]8(CC)[C@@]9%10CC.[Na+].[Na+].[Na+].[Na+] | 31 | 940 | 130 | 
6 | C[C@]12N3Cc4c(c(OCC(C(=O)[O-])C(=O)[O-])c5ccccc5c4OCC(C(=O)[O-])C(=O)[O-])CN1C(=O)N1CN4C(=O)N5CN6C(=O)N7CN8C(=O)N9Cc%10c(c(OCC(C(=O)[O-])C(=O)[O-])c%11ccccc%11c%10OCC(C(=O)[O-])C(=O)[O-])CN%10C(=O)N(CN%11C(=O)N(CN%12C(=O)N(CN(C3=O)[C@]12C)[C@@H]4[C@H]%125)[C@@H]6[C@H]%117)[C@]8(C)[C@@]9%10C.[Na+].[Na+].[Na+].[Na+].[Na+].[Na+].[Na+].[Na+] | 84 |  |  | 
7 | O=C(O)CCSC[C@H]1O[C@@H]2O[C@H]3[C@H](O)[C@@H](O)[C@@H](O[C@H]4[C@H](O)[C@@H](O)[C@@H](O[C@H]5[C@H](O)[C@@H](O)[C@@H](O[C@H]6[C@H](O)[C@@H](O)[C@@H](O[C@H]7[C@H](O)[C@@H](O)[C@@H](O[C@H]8[C@H](O)[C@@H](O)[C@@H](O[C@H]9[C@H](O)C(O)[C@@H](O[C@H]1[C@H](O)[C@H]2O)O[C@@H]9CSCCC(=O)O)O[C@@H]8CSCCC(=O)O)O[C@@H]7CSCCC(=O)O)O[C@@H]6CSCCC(=O)O)O[C@@H]5CSCCC(=O)O)O[C@@H]4CSCCC(=O)O)O[C@@H]3CSCCC(=O)O (stereo not given in full) |  |  |  | Ka (Rocuronium): 1.05 10^7/M
8 | Cc1cc(OCCCS(=O)(=O)[O-])c2c(c1OCCCS(=O)(=O)[O-])CN1C(=O)N3CN4C(=O)N5CN6C(=O)N7CN8C(=O)N9Cc%10c(c(OCCCS(=O)(=O)[O-])cc(C)c%10OCCCS(=O)(=O)[O-])CN%10C(=O)N(CN%11C(=O)N(CN%12C(=O)N(CN%13C(=O)N(C2)C1(C)C%133C)C4C%125)C6C%117)C8(C)C%109C.[Na+].[Na+].[Na+].[Na+] (mixture of isomers) | 151 | 600 |  | 
9 | O=C1N2Cc3c(OCCCS(=O)(=O)[O-])ccc(OCCCS(=O)(=O)[O-])c3CN3C(=O)N4CN5C(=O)N6CN7C(=O)N8CN9C(=O)N%10Cc%11c(OCCCS(=O)(=O)[O-])ccc(OCCCS(=O)(=O)[O-])c%11CN%11C(=O)N(CN%12C(=O)N(CN%13C(=O)N(CN1C41CCCCC231)[C@H]5[C@H]6%13)[C@H]7[C@H]8%12)C91CCCCC%10%111.[Na+].[Na+].[Na+].[Na+] (stereo not given in full) | 203 | 520 |  | 
10 | CC[C@]12N3Cc4c(OCCCS(=O)(=O)[O-])ccc(OCCCS(=O)(=O)[O-])c4CN1C(=O)N1CN4C(=O)N5CN6C(=O)N7CN8C(=O)N9Cc%10c(OCCCS(=O)(=O)[O-])ccc(OCCCS(=O)(=O)[O-])c%10CN%10C(=O)N(CN%11C(=O)N(CN%12C(=O)N(CN(C3=O)[C@]12CC)[C@@H]4[C@H]%125)[C@@H]6[C@H]%117)[C@]8(CC)[C@@]9%10CC.[Na+].[Na+].[Na+].[Na+] | 348 | 750 |  | 
11 | C[C@]12N3Cc4c(c(OCC(=O)[O-])c5ccccc5c4OCC(=O)[O-])CN1C(=O)N1CN4C(=O)N5CN6C(=O)N7CN8C(=O)N9Cc%10c(c(OCC(=O)[O-])c%11ccccc%11c%10OCC(=O)[O-])CN%10C(=O)N(CN%11C(=O)N(CN%12C(=O)N(CN(C3=O)[C@]12C)[C@@H]4[C@H]%125)[C@@H]6[C@H]%117)[C@]8(C)[C@@]9%10C.[Na+].[Na+].[Na+].[Na+] | 108 |  |  | 
12 | C[C@]12N3Cc4c(c(OCCC(=O)[O-])c5ccccc5c4OCCC(=O)[O-])CN1C(=O)N1CN4C(=O)N5CN6C(=O)N7CN8C(=O)N9Cc%10c(c(OCCC(=O)[O-])c%11ccccc%11c%10OCCC(=O)[O-])CN%10C(=O)N(CN%11C(=O)N(CN%12C(=O)N(CN(C3=O)[C@]12C)[C@@H]4[C@H]%125)[C@@H]6[C@H]%117)[C@]8(C)[C@@]9%10C.[Na+].[Na+].[Na+].[Na+] | 95 |  |  | 
